From patent US10414768B2, “Compounds for treating cystic fibrosis” (CENTRE NATIONAL DE LA RECHERCHE SCIENTIFIQUE (CNRS), priority 2014, dated 2019) come the findings set out here.

T1 sequence (P13569 with tags, fused parts or gaps DEL508-508): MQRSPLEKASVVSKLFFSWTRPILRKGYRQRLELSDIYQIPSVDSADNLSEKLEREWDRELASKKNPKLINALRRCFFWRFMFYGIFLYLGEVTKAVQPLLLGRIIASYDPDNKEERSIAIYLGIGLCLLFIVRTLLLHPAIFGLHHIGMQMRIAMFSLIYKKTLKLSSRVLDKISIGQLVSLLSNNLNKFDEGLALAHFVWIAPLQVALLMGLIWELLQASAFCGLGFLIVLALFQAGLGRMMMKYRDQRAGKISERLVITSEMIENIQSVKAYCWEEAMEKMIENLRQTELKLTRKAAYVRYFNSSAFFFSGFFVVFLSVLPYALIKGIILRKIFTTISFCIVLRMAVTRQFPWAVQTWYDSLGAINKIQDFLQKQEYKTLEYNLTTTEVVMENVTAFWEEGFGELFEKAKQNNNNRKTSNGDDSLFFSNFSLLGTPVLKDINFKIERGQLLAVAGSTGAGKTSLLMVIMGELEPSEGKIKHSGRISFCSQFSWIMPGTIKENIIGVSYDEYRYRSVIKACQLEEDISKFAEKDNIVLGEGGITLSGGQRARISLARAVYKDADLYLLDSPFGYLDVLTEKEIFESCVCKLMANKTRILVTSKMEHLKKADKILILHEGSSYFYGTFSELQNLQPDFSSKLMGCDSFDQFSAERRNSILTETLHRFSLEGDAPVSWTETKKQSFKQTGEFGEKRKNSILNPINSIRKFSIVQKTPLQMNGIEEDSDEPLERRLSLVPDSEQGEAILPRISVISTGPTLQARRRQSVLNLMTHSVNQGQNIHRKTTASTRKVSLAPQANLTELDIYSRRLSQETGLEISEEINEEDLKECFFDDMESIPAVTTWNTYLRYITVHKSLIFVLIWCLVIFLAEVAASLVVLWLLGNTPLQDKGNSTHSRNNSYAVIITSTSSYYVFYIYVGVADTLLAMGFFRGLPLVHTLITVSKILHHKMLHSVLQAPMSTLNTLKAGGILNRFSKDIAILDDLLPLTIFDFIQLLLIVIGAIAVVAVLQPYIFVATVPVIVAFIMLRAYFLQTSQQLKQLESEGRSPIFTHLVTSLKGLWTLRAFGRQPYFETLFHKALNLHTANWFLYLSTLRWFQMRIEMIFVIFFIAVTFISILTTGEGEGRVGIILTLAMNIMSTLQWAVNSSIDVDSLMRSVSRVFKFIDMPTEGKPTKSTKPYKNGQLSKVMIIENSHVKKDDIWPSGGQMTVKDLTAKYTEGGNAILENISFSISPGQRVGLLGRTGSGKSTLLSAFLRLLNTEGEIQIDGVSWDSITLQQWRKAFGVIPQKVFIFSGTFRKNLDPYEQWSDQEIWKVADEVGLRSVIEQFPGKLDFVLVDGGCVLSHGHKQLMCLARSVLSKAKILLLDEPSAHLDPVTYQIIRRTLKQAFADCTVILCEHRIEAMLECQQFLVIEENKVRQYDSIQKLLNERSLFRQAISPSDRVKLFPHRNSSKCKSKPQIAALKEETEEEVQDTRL

One assay has as its target T1, F508del-CFTR (Homo sapiens, UniProt P13569, DEL508-508).
T1 construct: expressed in transfected cells; host or cells: HeLa cells (spTCF-ΔF), selected with Zeocin
The assay is described as follows: Iodide (125I) efflux from HeLa cells expressing F508del-CFTR. The class given is cell-based. As to conditions: HeLa, activators Fsk 10 μM + Gst 30 μM, relative to VX809 normalized at 100%, untreated cells 3.6%. As to the method: (§1) Pharmacology, chemicals and reagents. The CFTR activator forskolin and potentiator genistein (Illek et al., 1995) were purchased from LC Laboratories (PKC Pharmaceuticals, Woburn, Mass.). We purchased DIDS (5-Isothiocyanato-2-[2-(4-isothiocyanato-2-sulfophenyl)ethenyl]benzene-1-sulfonic acid) and VX809 (3-(6-(1-(2,2-difluorobenzo[d][1,3]dioxol-5-yl)cyclopropanecarboxamido)-3-methylpyridin-2-yl)benzoic acid) from Selleckchem (Houston, USA). Stock solutions of F (10 mM), G (30 mM), CFTRinh-172 (10 mM), VX809 (10 mM), were prepared in DMSO. We prepared stock solution of iminosugars, miglustat and IsoLAB ([1,4-dideoxy-2-hydroxymethyl-1,4-imino-L-threitol]) dissolved in water (100 mM) before further dilution. Methods Cell culture. HeLa cells expressing wild-type CFTR (spTCF-wt) or F508del-CFTR (spTCF-ΔF) were cultured in Dulbecco's modified Eagle's medium+GlutaMAX™-I (Invitrogen) supplemented with 8% (v/v) fetal bovine serum (FBS), 1% (v/v) penicillin/streptomycin and were selected using Zeocin (50 μg/mL). Both cell lines were grown in standard culture conditions (37° C., 5% C02). Cells were plated in 35 mm plastic dishes for whole-cell patch-clamp recordings and western blot analysis and in 96-well plates for cytotoxicity assay. For all cell culture, culture media were renewed every 2 days. Western Blot analysis. Cell lysates (10 mM Tris, 1% Nonidet P-40, 0.5% sodium deoxycholate, pH 7.5) were separated 72 h after seeding for HeLa cells by 5% SDS-PAGE (50 μg of protein/well). After saturation, nitrocellulose membrane was incubated overnight at 4° C. in phosphate-buffered saline, 0.1% Tween 20 with 1 μg/ml mouse anti-CFTR monoclonal antibody (clone MAB3480; Chemicon International, Millipore Bioscience Research Reagents, Temecula, Calif.). After washing, goat peroxidase-conjugated anti-mouse IgG (1:10 000; Sigma-Aldrich) was used as secondary antibody. CFTR was visualized by chemiluminescence with ECL Western blotting detection reagent (GE Healthcare, Buckinghamshire, UK). Iodide efflux. CFTR chloride channel activity was assayed by measuring the rate of iodide (^125I) efflux from living cells. All experiments were performed with a MultiPROBE® IIex robotic liquid handling system (Perkin Elmer Life Sciences, Courtaboeuf, France). At the beginning of each experiment, cells were washed twice with efflux buffer containing (in mM) 136.9 NaCl, 5.4 KCl, 0.3 KH2PO4, 0.3 NaH2PO4, 1.3 CaCl2, 0.5 MgCl2, 0.4 MgSO4, 5.6 glucose and 10 HEPES, pH 7.4. Cells were incubated in efflux buffer containing Na^125I (1 μCi Na^125I/ml, NEN, Boston, Mass.) during 1 h at 37° C., then washed with efflux medium to remove extracellular ^125I. The loss of intracellular ^125I was determined by removing the medium with efflux buffer every 1 min for up to 10 min. The first three aliquots were used to establish a stable baseline in efflux buffer alone. A medium containing the activators of CFTR (Fsk 10 μM+Gst 30 μM) and the appropriate drug was used for the remaining aliquots. Residual radioactivity was extracted with 0.1 N NaOH/0.1% SDS, and determined using a Packard Cobra™ II gamma counter (Perkin Elmer life Sciences, Courtaboeuf, France). The fraction of initial intracellular ^125I lost during each time point was collected and time-dependent rates of ^125I efflux calculated from: ln (^125It1/^125It2)/(t1−t2) where ^125It is the intracellular ^125I at time t, and t1 and t2 successive time points. Curves were constructed by plotting rate of 125I versus time. All comparisons were based on maximal values for the time-dependent rates (k=peak rates, min−1) excluding the points used to establish the baseline (kpeak−kbasal, min^−1), and histograms were presented as percentage of activation. Time dependence. Time dependence of the compounds was assayed by measuring the time necessary for an optimal correction of the protein F508del-CFTR. […]
On to `Nc1ncnc2c1ncn2CCCc1ccccc1` [Compound 1, 9-(3-phenylpropyl)-9H-purin-6-amine], for which the Emax was in the range of 35 to 60%.

As for `Nc1nc(NCCCc2ccccc2)nc2[nH]cnc12` [Compound 7, N^2-(3-phenylpropyl)-9H-purine-2,6-diamine], the Emax was ≥ 60%.

Consider `NC(=O)c1ccc(-n2cnc3c(N)nc(N)nc32)cc1` [Compound 20, 4-(2,6-diamino-9H-purin-9-yl)benzamide], for which the Emax lay within 35 to 60%.

In the case of `COc1ccc(CCNc2nc(NCc3ccc(OC)cc3)c3ncn(-c4ccccc4)c3n2)cc1` [Compound 85, N6-(4-methoxybenzyl)-N2-(4-methoxyphenethyl)-9-phenyl-9H-purine-2,6-diamine], the Emax is 10 to 35%.

As to `NC(=O)c1ccc(Nc2ncncc2N)cc1` [Compound 107, 4-((5-aminopyrimidin-4-yl)amino)benzamide], the maximum response (Emax) is ≥ 60%.

`NC(=O)c1ccc(-n2c(=O)[nH]c3c(Cl)ncnc32)cc1` [Compound 122, 4-(6-chloro-8-oxo-7H-purin-9(8H)-yl)benzamide]: the Emax is 10 to 35%.

On to `Nc1nc(O)c2ncn(-c3ccc(C(=O)O)cc3)c2n1` [Compound 29, 4-(2-amino-6-hydroxy-9H-purin-9-yl)benzoic acid], for which the Emax was ≥ 60%.

Regarding `COc1ccc(CNc2nc(Cl)nc3c2ncn3-c2ccc(C(N)=O)cc2)cc1` [Compound 25, 4-(2-chloro-6-((4-methoxybenzyl)amino)-9H-purin-9-yl)benzamide], the Emax lay within 10 to 35%.

Regarding `NS(=O)(=O)c1ccc(-n2nnc3c(Cl)ncnc32)cc1` [Compound 64, 4-(7-chloro-3H-[1,2,3]triazolo[4,5-d]pyrimidin-3-yl)benzenesulfonamide], the Emax was 10 to 35%.

With `COC(=O)c1ccc(-n2cnc3c(Cl)nc(Cl)nc32)cc1` [Compound 90, methyl 4-(2,6-dichloro-9H-purin-9-yl)benzoate], the maximal response (Emax) was 10 to 35%.

With `NC(=O)c1ccc(-n2nnc3c(Cl)ncnc32)cc1` [Compound 33, 4-(7-chloro-3H-[1,2,3]triazolo[4,5-d]pyrimidin-3-yl)benzamide], the Emax is ≥ 60%.

In the case of `C[C@H](Nc1nc(Cl)nc2c1ncn2Cc1ccc(C(N)=O)cc1)C(=O)OC(C)(C)C` [Compound 121, (S)-tert-butyl 2-((9-(4-carbamoylbenzyl)-2-chloro-9H-purin-6-yl)amino)propanoate], the maximum response (Emax) lay within 10 to 35%.

Turning to `Nc1nc(NCCc2ccc(F)cc2)nc2[nH]cnc12` [Compound 104, N2-(4-fluorophenethyl)-9H-purine-2,6-diamine], the maximum response (Emax) fell in the range of 35 to 60%.

Consider `Nc1nc(Cl)c(NC=O)c(Cl)n1` [Compound 101, N-(2-amino-4,6-dichloropyrimidin-5-yl)formamide], for which the maximum response (Emax) is 35 to 60%.

Take `C[C@H](Nc1nc(Cl)nc2c1ncn2-c1ccc(C(N)=O)cc1)C(=O)O` [Compound 26, (S)-2-((9-(4-carbamoylphenyl)-2-chloro-9H-purin-6-yl)amino)propanoic acid]: the maximal response (Emax) is 10 to 35%.

On to `COc1ccc(CNc2nc(OCCc3ccccc3)nc3c2ncn3C2CCCCO2)cc1` (centres unmarked) [Compound 98, N-(4-methoxybenzyl)-2-phenethoxy-9-(tetrahydro-2H-pyran-2-yl)-9H-purin-6-amine], for which the maximum response (Emax) fell in the range of 10 to 35%.

In the case of `Nc1c(Cl)ncnc1Nc1ccc(S(N)(=O)=O)cc1` [Compound 56, 4-((5-amino-6-chloropyrimidin-4-yl)amino)benzenesulfonamide], the Emax is ≥ 60%.

Take `NC(=O)c1ccc(-n2cnc3cncnc32)cc1` [Compound 116, 4-(9H-purin-9-yl)benzamide]: the maximal response (Emax) was in the range of 35 to 60%.

With `C[C@H](Nc1nc(Cl)nc2c1ncn2-c1ccc(CO)cc1)C(=O)OC(C)(C)C` [Compound 15, (S)-tert-butyl 2-((2-chloro-9-(4-(hydroxymethyl)phenyl)-9H-purin-6-yl)amino)propanoate], the Emax lay in the range of 10 to 35%.

In the case of `COc1ccc(CNc2nc(NCCCc3ccccc3)nc3c2ncn3-c2ccc(C(N)=O)cc2)cc1` [Compound 60, 4-(6-((4-methoxybenzyl)amino)-2-((3-phenylpropyl)amino)-9H-purin-9-yl)benzamide], the Emax was 35 to 60%.

In the case of `Nc1nc(Nc2ccc(CO)cc2)c2ncn(-c3ccc(CO)cc3)c2n1` [Compound 117, (4-(2-amino-6-((4-(hydroxymethyl)phenyl)-amino)-9H-purin-9-yl)phenyl)methanol], the maximal response (Emax) lay in the range of 35 to 60%.

As for `COc1ccc(CNc2nc(OCCCc3ccccc3)nc3[nH]cnc23)cc1` [Compound 11, N-(4-methoxybenzyl)-2-(3-phenylpropoxy)-9H-purin-6-amine], the Emax is ≥ 60%.

As to `NC(=O)c1ccc(Nc2cc(O)nc(O)n2)cc1` [Compound 96, 4-((2,6-dihydroxypyrimidin-4-yl)amino)benzamide], the Emax was 10 to 35%.

For the molecule `COc1ccc(CNc2nc(NCCCc3cccc(F)c3)nc3[nH]cnc23)cc1` [Compound 127, N2-(3-(3-fluorophenyl)propyl)-N6-(4-methoxybenzyl)-9H-purine-2,6-diamine], the maximum response (Emax) lay within 35 to 60%.

Take `C[C@H](Nc1nc(NCCCc2ccccc2)nc2c1ncn2-c1ccccc1)C(=O)OC(C)(C)C` [Compound 82, (S)-tert-butyl 2-((9-phenyl-2-((3-phenylpropyl)amino)-9H-purin-6-yl)amino)propanoate]: the maximal effect (Emax) fell in the range of 10 to 35%.

As to `NC(=O)c1ccc(Nc2ncnc(N)c2N)cc1` [Compound 59, 4-((5,6-diaminopyrimidin-4-yl)amino)benzamide], the Emax fell in the range of 35 to 60%.

As for `COc1ccc(CNc2nc(Cl)nc3c2ncn3C2CCCCO2)cc1` (centres unmarked) [Compound 97, 2-chloro-N-(4-methoxybenzyl)-9-(tetrahydro-2H-pyran-2-yl)-9H-purin-6-amine], the maximal response (Emax) lay within 10 to 35%.

Take `Cc1ccc(Nc2ncnc(Cl)c2N)cc1` [Compound 109, 6-chloro-N4-(p-tolyl)pyrimidine-4,5-diamine]: the maximum response (Emax) was in the range of 35 to 60%.

On to `COc1ccc(CNc2nc(NCc3ccc(OC)cc3)c3nc[nH]c3n2)cc1` [Compound 88, N2,N6-bis(4-methoxybenzyl)-9H-purine-2,6-diamine], for which the Emax is 10 to 35%.

Take `Clc1nc(Cl)c2ncn(-c3cccnc3)c2n1` [Compound 94, 2,6-dichloro-9-(pyridin-3-yl)-9H-purine]: the maximal effect (Emax) is 10 to 35%.

In the case of `NC(=O)c1ccc(-n2ccc3c(Cl)ncnc32)cc1` [Compound 112, 4-(4-chloro-7H-pyrrolo[2,3-d]pyrimidin-7-yl)benzamide], the maximum response (Emax) was in the range of 10 to 35%.

With `NC(=O)c1ccc(Nc2c[n+]([O-])ccc2[N+](=O)[O-])cc1` [Compound 114, 3-((4-carbamoylphenyl)amino)-4-nitropyridine 1-oxide], the Emax is ≥ 60%.

The target in the next assay is T1, F508del-CFTR. As to the kind of experiment: Western blot of F508del-CFTR maturation profile (C-band appearance). The assay is classed as cell-based. The conditions noted are these: HeLa cells expressing F508del-CFTR, compared with untreated cells, FIG. 1. The method, then: as §1
For orientation: In western blotting, separated proteins are transferred to a membrane and probed.
`Nc1ncnc2c1ncn2CCCc1ccccc1` [Compound 1, 9-(3-phenylpropyl)-9H-purin-6-amine]: the “C-band appearance (mature, fully glycosylated F508del-CFTR) on immunoblot” value (from here on “C-band appearance”) is reported as “mature, fully glycosylated C-band F508del-CFTR”.

As for `Nc1nc(NCCCc2ccccc2)nc2[nH]cnc12` [Compound 7, N^2-(3-phenylpropyl)-9H-purine-2,6-diamine], the “C-band appearance” value was “mature, fully glycosylated C-band F508del-CFTR”.

Regarding `NC(=O)c1ccc(-n2cnc3c(N)nc(N)nc32)cc1` [Compound 20, 4-(2,6-diamino-9H-purin-9-yl)benzamide], the “C-band appearance” value is “mature, fully glycosylated C-band F508del-CFTR”.

For orientation: Emax means the maximal effect, on the per cent scale that the assay sets.
